Source: PubChem BioAssay AID1963849 (Molecular Pharmacology Branch, DTP, NCI, 2024)
“And” between values parts separate entries of the source, which are not always exact repeats. Equal values may be shown once.

System: 299254-011-R-J1-PDC complex spheroid viability
Assay: Anticancer human tumor 299254-011-R-J1-PDC patient-derived melanoma cell line growth inhibition [POLQ]
Details: for viability, T/C: stronger effect = lower value; for IC50: curve of compound
Procedure: Multicellular complex tumor spheroid response to Polymerase (POL) inhibitors (novobiocin, ART-558, RP6685) in combination with a variety of drugs and investigational agents in selected tumor cell lines
The POL inhibitors (novobiocin, ART-558, and RP6685) were evaluated both individually and in combination with standard of care and investigational anticancer small molecules within a complex spheroid model of solid tumors. . Complex spheroids include a stromal component modeled by human endothelial cells (HUVEC) and fibroblasts modeled by human mesenchymal stem cells (MSCs). The concentration ranges selected for each drug and investigational agent were based upon clinically achievable concentrations if the clinical Cmax of the agent was known.
Compounds. The drugs and investigational agents: novobiocin (NSC847541), ART-558 (NSC835418), RP-6685 (NSC848927), peposertib (NSC802822), ceralasertib (NSC780249), elimusertib (NSC800525), camonsertib (NSC841442), AZD-1390 (NSC803789), olaparib (NSC753686), talazoparib (NSC767125), rucaparib (NSC756644), sotorasib (NSC818433), MRTX-1133 (NSC836407), SN-38 (NSC673596), topotecan (NSC609699), epotoside (NSC141540), doxorubicin (NSC123127), gemcitabine (NSC613327), 5-fluorouracil (NSC19893), paclitaxel (NSC125973), vemurafenib (NSC761431), MSA-2 (NSC828583), SN-011 (NSC837082), adavosertib (NSC754352), prexasertib (NSC758257), carboplatin (NSC241240) and oxaliplatin (NSC266046), were obtained from the National Cancer Institute (NCI) Developmental Therapeutics Program Chemical Repository (21). The FDA-approved anticancer drug set is available from the Developmental Therapeutics Program at https://dtp.cancer.gov/organization/dscb/obtaining/. […] The stock solutions were prepared in dimethyl sulfoxide (DMSO, Sigma-Aldrich, St. Louis, MO, cat. D2650), except for the platinum compounds which were prepared in saline (Quality Biological, Gaithersburg, MD, cat. 114-055-101), at 800-fold the tested concentration and stored at -70 degrees C prior to their use. All drugs and investigational agents were tested over a range starting from a high concentration at or near the clinical Cmax and decreasing in half-log increments. If the clinical Cmax for an agent had not been determined, the highest concentration tested was 10 microM, except for SN-38, which was tested at a high concentration of 1 microM.
Cell Culture. All cells were maintained in an incubator at 37 degrees C and 5% CO2 with 95% humidity. The PDC lines were cultured according to standard operating procedures established by the NCI PDMR (https://pdmr.cancer.gov). Table 3 of the manuscript, lists the cell lines along with the number of the three cell types plated to form the mct-spheroids and media for tumor cell growth. After thawing, all PDC lines, except 997537-175-T-J1-PDC and 415267-285-R-J2-PDC, were cultured in Matrigel-coated flasks prepared with a working solution of 1X Ham's F-12 nutrient mix, without supplementation (Thermo Fisher Scientific, cat. 11765054), 100 U/mL penicillin-streptomycin (Thermo Fisher Scientific, cat. 15140122), and 2.5% Matrigel (Corning Inc., Corning, NY, cat. 354248) for the first three passages. The two PDC lines 997537-175-T-J1-PDC and 415267-285-R-J2-PDC were cultured on uncoated flasks. The 857933-349-R-J2-PDC line was cultured in 6C/Colon 1B media containing advanced DMEM/F-12 (Thermo Fisher Scientific, cat. 12634028), 10 mM HEPES (Thermo Fisher Scientific, cat. 15630080), 1X GlutaMAX supplement (Thermo Fisher Scientific, cat. 35050061), 0.1 mg/mL primocin (InvivoGen, San Diego, CA, cat. ant-pm-2), 10% defined fetal bovine serum, heat inactivated (HyClone Laboratories Inc., Logan, UT, cat. SH30070.03HI), 50% L-WRN conditioned media (ATCC, cat. CRL-3276), 1.25 mM N-Acetyl-L-cysteine (Sigma-Aldrich, cat. A9165), 10 mM nicotinamide (Sigma-Aldrich, cat. N0636), 1X B-27 supplement (Thermo Fisher Scientific, cat. 17504044), 1X N-2 supplement (Thermo Fisher Scientific, cat. […]
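Note: spheroids exposed to drugs for one week before measurement.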
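Throughout, for viability, T/C: percent viability relative to DMSO vehicle control taken as 100%.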

Row | SMILES | viability, T/C (compound 0.0316 µM) | viability, T/C (compound 0.1 µM) | viability, T/C (compound 0.316 µM) | viability, T/C (compound 1 µM) | viability, T/C (compound 3.16 µM) | viability, T/C (compound 10 µM) | IC50 | viability, T/C (compound 0.00316 µM) | viability, T/C (compound 0.01 µM) | viability, T/C (compound 0.00949 µM) | viability, T/C (compound 0.03 µM) | viability, T/C (compound 0.0949 µM) | viability, T/C (compound 0.3 µM) | viability, T/C (compound 0.949 µM) | viability, T/C (compound 3 µM) | viability, T/C (compound 0.000316 µM) | viability, T/C (compound 0.001 µM)
1 | C#Cc1c(F)ccc2cc(O)cc(-c3ncc4c(N5CC6CCC(C5)N6)nc(OCC56CCCN5CC(F)C6)nc4c3F)c12 (stereo unspecified) | 90.8% and 94.2% and 98% | 109% and 101% and 94.8% | 113% and 107% and 110% | 117% and 116% and 112% | 102% and 117% and 93.7% | 84.7% and 82.2% and 84.4% | > 10000 nM | – | – | – | – | – | – | – | – | – | –
2 | C=CC(=O)N1CCN(c2nc(=O)n(-c3c(C)ccnc3C(C)C)c3nc(-c4c(O)cccc4F)c(F)cc23)C(C)C1 (stereo unspecified) | 84.9% and 90.1% and 80.7% | 71.5% and 77.5% and 66.9% | 85.2% and 74.5% and 70.9% | 72.8% and 66.9% and 60.2% | 63.5% and 85.5% and 63% | 66.1% and 77.9% and 62.6% | > 10000 nM | – | – | – | – | – | – | – | – | – | –
3 | C=CCn1c(=O)c2cnc(Nc3ccc(N4CCN(C)CC4)cc3)nc2n1-c1cccc(C(C)(C)O)n1 | 106% and 114% and 110% | 115% and 104% and 105% | 83.5% and 95.6% and 103% | 79.1% and 78.9% and 58.3% | – | – | > 1000 nM | 101% and 90.2% and 103% | 98.3% and 97.1% and 94.1% | – | – | – | – | – | – | – | –
4 | CC(=O)O[C@H]1C(=O)[C@@]2(C)[C@H]([C@H](OC(=O)c3ccccc3)[C@]3(O)C[C@H](OC(=O)[C@H](O)[C@@H](NC(=O)c4ccccc4)c4ccccc4)C(C)=C1C3(C)C)[C@]1(OC(C)=O)CO[C@@H]1C[C@@H]2O | – | – | – | – | – | – | 93.2 nM and 125 nM and 70.4 nM | – | – | 84.8% and 82.2% and 94.2% | 76.5% and 84.1% and 70.9% | 49.1% and 47.2% and 41.7% | 31.8% and 42.1% and 26.9% | 22.3% and 28.3% and 21.8% | 28.1% and 22.8% and 15.4% | – | –
5 | CC(C)n1c(=O)n(C)c2cnc3cc(F)c(-c4ccc(OCCCN5CCCCC5)nc4)cc3c21 | 98.8% and 106% and 88.4% | 96.7% and 99.9% and 85.7% | 112% and 108% and 95.3% | 101% and 95.5% and 94.9% | 89.8% and 106% and 90.2% | 73.4% and 78.9% and 88.5% | > 10000 nM | – | – | – | – | – | – | – | – | – | –
6 | CC1COCCN1c1cc(-c2ccnn2C)c2ccnc(-c3ccn[nH]3)c2n1 (stereo unspecified) | 96.6% and 111% and 99% | 67.8% and 70% and 78.4% | 46.7% and 46.5% and 50.2% | 30.8% and 31.4% and 31.7% | 21.6% and 31.1% and 23.9% | 18.8% and 20.6% and 22.7% | 255 nM and 265 nM and 320 nM | – | – | – | – | – | – | – | – | – | –
7 | CC1COCCN1c1cc(C2(O)CC3CCC(C2)O3)c2cnn(-c3ccn[nH]3)c2n1 (stereo unspecified) | 84.1% and 85.2% and 80.8% | 66.5% and 64.7% and 57.4% | 34.4% and 36.9% and 39.6% | 26.3% and 17.9% and 25.1% | 14.4% and 15.1% and 20.3% | 8.87% and 10.7% and 12.4% | 190 nM and 182 nM and 159 nM | – | – | – | – | – | – | – | – | – | –
8 | CC1COCCN1c1cc(C2(S(C)(=N)=O)CC2)nc(-c2ccnc3[nH]ccc23)n1 (stereo unspecified) | 92.2% and 108% and 93.8% | 101% and 108% and 94.5% | 106% and 104% and 111% | 85.5% and 84.5% and 95% | 57.9% and 60.5% and 65.8% | 41.8% and 43.3% and 37.2% | 5430 nM and 6330 nM and 5970 nM | – | – | – | – | – | – | – | – | – | –
9 | CCCS(=O)(=O)Nc1ccc(F)c(C(=O)c2c[nH]c3ncc(-c4ccc(Cl)cc4)cc23)c1F | 114% and 106% and 96.5% | 99.7% and 109% and 112% | 118% and 95.7% and 123% | 102% and 122% and 117% | 109% and 107% and 120% | 50.6% and 47.5% and 69.2% | > 10000 nM and 9540 nM | – | – | – | – | – | – | – | – | – | –
10 | CC[C@@]1(O)C(=O)OCc2c1cc1n(c2=O)Cc2cc3c(CN(C)C)c(O)ccc3nc2-1 | 107% and 108% and 94.4% | 78.4% and 81.1% and 72.7% | – | – | – | – | > 100 nM | 106% and 89.5% and 111% | 103% (2×) and 114% | – | – | – | – | – | – | 98.9% and 101% and 112% | 94.2% and 113% and 101%
11 | CCc1c2c(nc3ccc(O)cc13)-c1cc3c(c(=O)n1C2)COC(=O)[C@]3(O)CC | 75.9% and 72.8% and 82% | 67.9% and 81.2% and 60.7% | 69.4% and 75.8% and 59.4% | 51.7% and 59.2% and 59.4% | – | – | > 1000 nM | 94.6% and 92.7% and 99.2% | 89.3% and 93.2% and 77.9% | – | – | – | – | – | – | – | –
12 | CCc1cc2c(N3CCc4c(cc(Cn5ccnc5)cc4-c4cn(C)nc4C(F)(F)F)C3=O)cc(C)nc2c(OC)n1 | 131% and 104% and 92.7% | 90.2% and 96.5% and 106% | 118% and 92.2% and 99.7% | 99.2% and 94.1% and 99.4% | 103% and 86.5% and 90.4% | 59.6% and 62.7% and 67.7% | > 10000 nM | – | – | – | – | – | – | – | – | – | –
13 | CCc1cc2c(N3CCc4c(cc(Cn5ccnc5)cc4-c4cn(C)nc4C(F)(F)F)C3=O)ccnc2c(OC)n1 | 97% and 108% and 110% | 105% and 116% and 102% | 96.3% and 113% and 109% | 93.1% and 100% and 93.5% | 98% and 90.8% and 98.3% | 84.2% and 82% and 82.5% | > 10000 nM | – | – | – | – | – | – | – | – | – | –
